Results: paper PMC11975047, “Antiproliferative effects, mechanism of action and tumor reduction studies in a lung cancer xenograft mouse model of an organometallic gold(I) alkynyl complex” (RSC Medicinal Chemistry, 2025)

Key:
[1] = biological target: T1, thioredoxin reductase (TrxR), rat liver (Rattus norvegicus, UniProt O89049); test: DTNB reduction assay with purified rat liver TrxR, […] min preincubation, […] nm
T1 construct: gene Txnrd1

[2] = biological target: T1, thioredoxin reductase (TrxR), rat liver; test: DTNB reduction assay with purified rat liver TrxR, reference inhibitor

T1 sequence (O89049 whole entry): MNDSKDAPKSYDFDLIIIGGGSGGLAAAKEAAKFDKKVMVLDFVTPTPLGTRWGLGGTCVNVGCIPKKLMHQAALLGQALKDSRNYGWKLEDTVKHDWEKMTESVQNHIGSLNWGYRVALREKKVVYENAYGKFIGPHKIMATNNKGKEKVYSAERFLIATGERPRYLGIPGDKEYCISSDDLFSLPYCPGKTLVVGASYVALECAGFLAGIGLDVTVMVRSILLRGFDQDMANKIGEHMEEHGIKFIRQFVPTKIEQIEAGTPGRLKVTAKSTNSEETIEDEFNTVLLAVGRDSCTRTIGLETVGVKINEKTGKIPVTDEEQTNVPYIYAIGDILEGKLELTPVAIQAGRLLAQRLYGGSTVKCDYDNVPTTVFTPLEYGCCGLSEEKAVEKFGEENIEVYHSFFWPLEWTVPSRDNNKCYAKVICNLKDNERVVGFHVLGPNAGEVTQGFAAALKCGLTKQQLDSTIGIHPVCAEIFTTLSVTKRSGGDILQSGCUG

Row | Structure (SMILES) | IC50 [1] [nM] | IC50 [2] [nM]
1 | CC[P+](CC)(CC)[Au-][C]#Cc1ccc(OC)cc1 [compound 1, complex 1] | 50 ± 10 | –
2 | CC[P](CC)(CC)=[Au][S][C@@H]1O[C@H](COC(C)=O)[C@@H](OC(C)=O)[C@H](OC(C)=O)[C@H]1OC(C)=O [AF, Auranofin] | – | 30
